#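 Cells were grown in 96-well plates and exposed to each compound for 48 hours at five concentrations; endpoints were interpolated linearly between bracketing concentrations, or set to the highest concentration if not reached. GI50 = concentration required for 50% inhibition of growth. TGI marks complete inhibition of growth.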
# Key:
# Test in all cases: NCI anticancer screen, dose series, 48 h
# [1] = tested on: EKVX NSCLC
# [2] = tested on: HCT-116 colon
# [3] = tested on: HL-60(TB) leukemia
# [4] = tested on: MDA-MB-231 breast
# [5] = tested on: NCI-H226 lung
# [6] = tested on: SF-295 CNS
# [7] = tested on: SK-OV-3 ovarian
# [8] = tested on: SNB-75 CNS
# [9] = tested on: SR leukemia
# [10] = tested on: SW-620 colon
Structure (SMILES),TGI [1] [µM],TGI [2] [µM],TGI [3] [µM],TGI [4] [µM],TGI [5] [µM],TGI [6] [µM],TGI [7] [µM],TGI [8] [µM],TGI [9] [µM],TGI [10] [µM],GI50 [2] [µM],GI50 [3] [µM],GI50 [4] [µM],GI50 [5] [µM],GI50 [6] [µM],GI50 [7] [µM],GI50 [8] [µM],GI50 [9] [µM],GI50 [10] [µM],GI50 [1] [µM]
Cn1c(=S)c2[nH]c(SCCN3CCCC3)nc2n(C)c1=O,> 100,> 100,> 100,> 100,> 100,> 100,> 100,> 100,> 100,> 100,,,,,,,,,,
CCC1CCc2nc3sc(C(=O)Nc4ccccc4C)c(N)c3cc2C1 (stereo not drawn),,> 100,0.617,> 100,> 100,> 100,> 100,> 100,14.6,> 100,0.348,0.214,> 100,> 100,0.354,0.855,0.312,0.196,0.388,
C#CCOc1cccc(Nc2ncnc3ccc(NC(=O)CCl)cc23)c1,23.6,5.25,19.2,30.8,> 100,19.8,> 100,> 100,17.9,5.88,0.0493,1.66,1.07,7.43,2.29,2.59,1.87,0.0743,0.0614,3.5
CCN1C(=O)N(c2ccccc2)C2NN=c3s/c(=C4\C(=O)N(C(C)C)c5ccccc54)c(=O)n3C21 (stereo not drawn),> 100,8.24,> 23.6,11.6,31.4,4.76,> 100,4.79,> 100,> 100,2.18,1.03,2.51,3.7,0.737,1.07,0.253,0.553,0.891,1.83
COc1ccc2c(c1)[n+](=O)c(C(=O)/C=C/c1cc(OC)c(OC)c(OC)c1)c(C)n2[O-],15.1,65.5,> 100,35.2,82.4,> 100,51.7,34.7,> 100,> 100,16.9,> 100,13.5,26.3,27.1,21.3,12,58.4,> 100,1.97
CCCSC1=NC2C(N(CC)C(=O)N2CC)N1/N=C/C=C/c1ccccc1[N+](=O)[O-] (stereo not drawn),> 100,> 100,12.1,7.44,> 100,> 100,> 100,54.7,5.53,> 100,3.2,3.27,2.35,3.32,2.74,6.07,2.26,1.1,4.25,3.89

# From PubChem BioAssay (NCI)
